pIC50: −log10 of the molar value.
Assays:
KRAS G12S = biological target: T1, KRAS G12S (Homo sapiens, UniProt P01116, G12S); assay: HTRF assay, interaction of GST-tagged K-Ras with His-tagged hSOS1 (KRAS G12S); format: biochemical; details: <500 nM, read-out: Inhibition of KRAS G12S (IC50)
T1 construct: made in house; host or cells: E. coli BL21 (DE3)
Summary of the method: (§1)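 GST-K-Ras (G12S or WT) with anti-GST-Eu donor mixed with His-hSOS1 and anti-6His-XL665 acceptor in ~5 mM HEPES pH 7.4, 150 mM NaCl, 1 mM DTT, 0.05% BSA, 0.0025% Igepal. After ~10 min or longer, HTRF 665/620 nm ratio read.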

KRAS WT = biological target: T2, KRAS WT (Homo sapiens, UniProt P01116); assay: HTRF assay, interaction of GST-tagged K-Ras with His-tagged hSOS1 (KRAS wildtype); format: biochemical; details: <500 nM, read-out: Inhibition of KRAS WT (IC50)
T2 construct: made in house; host or cells: E. coli BL21 (DE3)
Summary of the method: as §1

T1 sequence (P01116 1-188 isoform P01116-2 G12S): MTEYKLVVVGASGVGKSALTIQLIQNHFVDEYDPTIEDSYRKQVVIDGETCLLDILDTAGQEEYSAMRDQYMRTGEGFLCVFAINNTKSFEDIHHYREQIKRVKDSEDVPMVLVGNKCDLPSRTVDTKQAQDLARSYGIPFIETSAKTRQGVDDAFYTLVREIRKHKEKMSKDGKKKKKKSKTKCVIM
T2 sequence (P01116 1-188 isoform P01116-2): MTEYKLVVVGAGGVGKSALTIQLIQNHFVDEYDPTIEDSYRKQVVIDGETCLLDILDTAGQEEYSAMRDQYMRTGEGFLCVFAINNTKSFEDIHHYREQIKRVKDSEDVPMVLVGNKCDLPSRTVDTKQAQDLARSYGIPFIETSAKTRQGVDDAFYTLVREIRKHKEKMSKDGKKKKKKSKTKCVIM

pIC50 (KRAS G12S)	pIC50 (KRAS WT)	SMILES
> 6.30	> 6.30	CC1C(CN2c3nc(OC[C@@]45CCCN4C[C@H](F)C5)nc4c(F)c(-c5ccc(F)c6sc(N)c(C#N)c56)c(Cl)c(c34)OC[C@@H]2[C@H](C)O)CCN1C(=O)n1ccnc1 (stereo partly drawn) [Compound 457, 4-((5R)-4-((1-(1H-imidazole-1-carbonyl)-2-methylpyrrolidin-3-yl)methyl)-8-chloro-10-fluoro-2-(((2R,7aS)-2-fluorotetrahydro-1H-pyrrolizin-7a(5H)-yl)methoxy)-5-((S)-1-hydroxyethyl)-5,6-dihydro-4H-[1,4]oxazepino[5,6,7-de]quinazolin-9-yl)-2-amino-7-fluorobenzo[b]thiophene-3-carbonitrile]
> 6.30	> 6.30	C/C(C#N)=C/C(=O)N1CC(CN2CCOc3c(Cl)c(-c4ccc(F)c5sc(N)c(C#N)c45)c(F)c4nc(OC[C@@]56CCCN5C[C@H](F)C6)nc2c34)C1 [Compound 459, 2-amino-4-(8-chloro-4-((1-((Z)-3-cyanobut-2-enoyl)azetidin-3-yl)methyl)-10-fluoro-2-(((2R, 7aS)-2-fluorotetrahydro-1H-pyrrolizin-7a(5H)-yl)methoxy)-5,6-dihydro-4H-[1,4]oxazepino[5,6,7-de]quinazolin-9-yl)-7-fluorobenzo [b]thiophene-3-carbonitrile]
> 6.30	> 6.30	C[C@@H]1[C@H](N2C[C@H](C)Oc3nc(-c4ccc(F)c5sc(N)c(C#N)c45)c(F)c4nc(OC[C@@]56CCCN5C[C@H](F)C6)nc2c34)CCN1C(=O)n1cnc(Cl)n1 [Compound 461, 2-amino-4-((S)-10-((2R,3R)-1-(3-chloro-1H-1,2,4-triazole-1-carbonyl)-2-methylpyrrolidin-3-yl)-4-fluoro-2-(((2R,7aS)-2-fluorotetrahydro-1H-pyrrolizin-7a(5H)-yl)methoxy)-8-methyl-9,10-dihydro-8H-7-oxa-1,3,6,10-tetraazacyclohepta[de]naphthalen-5-yl)-7-fluorobenzo[b]thiophene-3-carbonitrile]
> 6.30	> 6.30	N#Cc1c(N)sc2c(F)ccc(-c3c(Cl)c4c5c(nc(OC[C@@]67CCCN6C[C@H](F)C7)nc5c3F)N(CC3CN(C(=O)C5=CCCC5)C3)CCO4)c12 [Compound 462, 2-amino-4-(8-chloro-4-((1-(cyclopent-1-ene-1-carbonyl)azetidin-3-yl)methyl)-10-fluoro-2-(((2R,7aS)-2-fluorotetrahydro-1H-pyrrolizin-7a(5H)-yl)methoxy)-5,6-dihydro-4H-[1,4]oxazepino [5,6,7-de]quinazolin-9-yl)-7-fluorobenzo[b]thiophene-3-carbonitrile]
> 6.30	> 6.30	N#Cc1c(N)sc2c(F)ccc(-c3c(Cl)c4c5c(nc(OC[C@@]67CCCN6C[C@H](F)C7)nc5c3F)N(CC3(O)CN(C(=O)n5ccnc5)C3)CCO4)c12 [Compound 463, 2-amino-4-(8-chloro-10-fluoro-2-(((2R,7aS)-2-fluorotetrahydro-1H-pyrrolizin-7a(5H)-yl)methoxy)-4-((3-hydroxy-1-(1H-imidazole-1-carbonyl)azetidin-3-yl)methyl)-5,6-dihydro-4H-[1,4]oxazepino [5,6,7-de]quinazolin-9-yl)-7-fluorobenzo[b]thiophene-3-carbonitrile]
> 6.30	> 6.30	Cc1cn(C(=O)N2CC[C@@H](N3C[C@H](C)Oc4c(Cl)c(-c5ccc(F)c6sc(N)c(C#N)c56)c(F)c5nc(OC[C@@]67CCCN6C[C@H](F)C7)nc3c45)[C@H]2C)c(C)n1 [Compound 464, 2-amino-4-((6S)-8-chloro-4-((2R,3R)-1-(2,4-dimethyl-1H-imidazole-1-carbonyl)-2-methylpyrrolidin-3-yl)-10-fluoro-2-(((2R,7aS)-2-fluorotetrahydro-1H-pyrrolizin-7a(5H)-yl)methoxy)-6-methyl-5,6-dihydro-4H-[1,4]oxazepino[5,6,7-de]quinazolin-9-yl)-7-fluorobenzo[b] thiophene-3-carbonitrile]
> 6.30	> 6.30	C=CC(=O)N1CC(CN2CCOc3c(Cl)c(-c4ccc(F)c5sc(N)c(C#N)c45)c(F)c4nc(OC[C@@]56CCCN5C[C@H](F)C6)nc2c34)C1 [Compound 466, 4-(4-((1-acryloylazetidin-3-yl)methyl)-8-chloro-10-fluoro-2-(((2R,7aS)-2-fluorotetrahydro-1H-pyrrolizin-7a(5H)-yl)methoxy)-5,6-dihydro-4H-[1,4]oxazepino[5,6,7-de]quinazolin-9-yl)-2-amino-7-fluorobenzo[b]thiophene-3-carbonitrile]
> 6.30	> 6.30	CN(C)C/C=C/C(=O)N1CC(CN2CCOc3c(Cl)c(-c4ccc(F)c5sc(N)c(C#N)c45)c(F)c4nc(OC[C@@]56CCCN5C[C@H](F)C6)nc2c34)C1 [Compound 469, 2-amino-4-(8-chloro-4-((1-((E)-4-(dimethylamino)but-2-enoyl)azetidin-3-yl)methyl)-10-fluoro-2-(((2R, 7aS)-2-fluorotetrahydro-1H-pyrrolizin-7a(5H)-yl)methoxy)-5,6-dihydro-4H-[1,4]oxazepino[5,6,7-de]quinazolin-9-yl)-7-fluorobenzo [b]thiophene-3-carbonitrile]
> 6.30	> 6.30	C=CC(=O)N1CC[C@@H](N2CCOc3c(Cl)c(-c4ccc(F)c5sc(N)c(C#N)c45)c(F)c4nc(OC[C@@]56CCCN5C[C@H](F)C6)nc2c34)[C@H]1C [Compound 470, 4-(4-((2R,3R)-1-acryloyl-2-methylpyrrolidin-3-yl)-8-chloro-10-fluoro-2-(((2R, 7aS)-2-fluorotetrahydro-1H-pyrrolizin-7a(5H)-yl)methoxy)-5,6-dihydro-4H-[1,4]oxazepino[5,6,7-de]quinazolin-9-yl)-2-amino-7-fluorobenzo[b]thiophene-3-carbonitrile]
> 6.30	> 6.30	CC(C)[C@@H]1[C@H](CN2CCOc3c(Cl)c(-c4ccc(F)c5sc(N)c(C#N)c45)c(F)c4nc(OC[C@@]56CCCN5C[C@H](F)C6)nc2c34)CN1C(=O)n1cnc(F)n1 [Compound 471, 2-amino-4-(8-chloro-10-fluoro-4-(((2R,3R)-1-(3-fluoro-1H-1,2,4-triazole-1-carbonyl)-2-isopropylazetidin-3-yl)methyl)-2-(((2R,7aS)-2-fluorotetrahydro-1H-pyrrolizin-7a (5H)-yl)methoxy)-5,6-dihydro-4H-[1,4]oxazepino[5,6,7-de]quinazolin-9-yl)-7-fluorobenzo[b]thiophene-3-carbonitrile]
> 6.30	> 6.30	N#Cc1c(N)sc2c(F)ccc(-c3c(Cl)c4c5c(nc(OC[C@@]67CCCN6C[C@H](F)C7)nc5c3F)N(CC3CN(C(=O)/C=C/C5COC5)C3)CCO4)c12 [Compound 475, 2-amino-4-(8-chloro-10-fluoro-2-(((2R,7aS)-2-fluorotetrahydro-1H-pyrrolizin-7a(5H)-yl)methoxy)-4-((1-((E)-3-(oxetan-3-yl)acryloyl)azetidin-3-yl)methyl)-5,6-dihydro-4H-[1,4]oxazepino[5,6,7-de]quinazolin-9-yl)-7-fluorobenzo[b] thiophene-3-carbonitrile]
> 6.30	> 6.30	COCC1([C@@H]2[C@H](CN3CCOc4c(Cl)c(-c5ccc(F)c6sc(N)c(C#N)c56)c(F)c5nc(OC[C@@]67CCCN6C[C@H](F)C7)nc3c45)CN2C(=O)n2cnc(C)c2)CC1 [Compound 477, 2-amino-4-(8-chloro-10-fluoro-2-(((2R,7aS)-2-fluorotetrahydro-1H-pyrrolizin-7a(5H)-yl)methoxy)-4-(((2S,3R)-2-(1-(methoxymethyl)cyclopropyl)-1-(4-methyl-1H-imidazole-1-carbonyl)azetidin-3-yl)methyl)-5,6-dihydro-4H-[1,4]oxazepino[5,6,7-de]quinazolin-9-yl)-7-fluorobenzo [b]thiophene-3-carbonitrile]
> 6.30	> 6.30	C[C@@H]1[C@H](N2CCCOc3c(Cl)c(-c4ccc(F)c5sc(N)c(C#N)c45)c(F)c4nc(OC[C@@]56CCCN5C[C@H](F)C6)nc2c34)CCN1C(=O)n1ccnc1 [Compound 481, 4-(4-((2R,3R)-1-(1H-imidazole-1-carbonyl)-2-methylpyrrolidin-3-yl)-9-chloro-11-fluoro-2-(((2R,7aS)-2-fluorotetrahydro-1H-pyrrolizin-7a(5H)-yl)methoxy)-4,5,6,7-tetrahydro-[1,5]oxazocino[4,3,2-de]quinazolin-10-yl)-2-amino-7-fluorobenzo[b]thiophene-3-carbonitrile]
> 6.30	> 6.30	CC#CC(=O)N1C[C@@H](CN2CCOc3c(Cl)c(-c4ccc(F)c5sc(N)c(C#N)c45)c(F)c4nc(OC[C@@]56CCCN5C[C@H](F)C6)nc2c34)[C@H]1C1(C)CC1 [Compound 484, 2-amino-4-(4-(((2S,3R)-1-(but-2-ynoyl)-2-(1-methylcyclopropyl)azetidin-3-yl)methyl)-8-chloro-10-fluoro-2-(((2R,7aS)-2-fluorotetrahydro-1H-pyrrolizin-7a(5H)-yl)methoxy)-5,6-dihydro-4H-[1,4]oxazepino [5,6,7-de]quinazolin-9-yl)-7-fluorobenzo[b]thiophene-3-carbonitrile]
> 6.30	> 6.30	Cc1cn(C(=O)N2CC[C@@H](N3CCOc4nc(-c5cc(N)c(F)c(C)c5C(F)(F)F)c(F)c5nc(OC[C@@]67CCCN6C[C@H](F)C7)nc3c45)[C@H]2C)c(C)n1 [Compound 487, ((2R,3R)-3-(5-(5-amino-4-fluoro-3-methyl-2-(trifluoromethyl)phenyl)-4-fluoro-2-(((2R,7aS)-2-fluorotetrahydro-1H-pyrrolizin-7a(5H)-yl)methoxy)-8,9-dihydro-10H-7-oxa-1,3,6,10-tetraazacyclohepta[de]naphthalen-10-yl)-2-methylpyrrolidin-1-yl)(2,4-dimethyl-1H-imidazol-1-yl) methanone]

From patent US12606572B2, “Substituted heterocycles and uses thereof” (Kumquat Biosciences Inc., priority 2023, dated 2026)
